# Experimental data reported in US20230248626A1, “Compositions Comprising (Bio)-Alkanediols” (Symrise AG, priority 0001, published 2023).
# Tests used:
# Format in all cases: cell-based
# Candida albicans = test: MIC test (growth inhibition, 96 well plates, OD); conditions: read-out: Minimum Inhibitory Concentration (MIC)
# Protocol: (§1) The MIC test is a test on growth inhibition. Estimation of Minimum Inhibitory Concentration (MIC) is executed in 96 well plates. Through the comparison of bacterial growth with positive and negative controls via optical density (OD), different concentrations of given test substances are evaluated.
# (§2) Bacteria are cultivated under adjusted conditions based on information of the German Collection of Microorganisms and Cell Cultures (DSMZ) and stored in 50% Glycerol prior to use. Afterwards, the following method was applied: Adding growth medium (according to microorganism) to each well of the microplate. Adding the test-substances in different concentrations, positive controls (water controls only with medium) and negative controls (benchmarks according to organism). Adding the microorganism in a concentration of 10^6 CFU/ml (CFU=colony forming units). Incubation of the microplates at appropriate conditions.
# (§3) According to resulting growth, substance concentrations are labelled either as inhibiting or not and MIC is defined as the lowest concentration where a complete growth inhibition is visible. Experiments at concentration limits (highest concentration labelled as growth and lowest concentration labelled as inhibiting) are performed at least twice.
# Corynebacterium jeikeium = test: MIC test (growth inhibition, 96 well plates, OD); conditions: read-out: Minimum Inhibitory Concentration (MIC)
# Protocol: as §1, §2, §3
# Escherichia coli = test: MIC test (growth inhibition, 96 well plates, OD); conditions: read-out: Minimum Inhibitory Concentration (MIC)
# Protocol: as §1, §2, §3
# Propionibacterium acnes = test: MIC test (growth inhibition, 96 well plates, OD); conditions: Cutibacterium acnes; read-out: Minimum Inhibitory Concentration (MIC)
# Protocol: as §1, §2, §3
# Staphylococcus aureus = test: MIC test (growth inhibition, 96 well plates, OD); conditions: read-out: Minimum Inhibitory Concentration (MIC)
# Protocol: as §1, §2, §3
# Staphylococcus hominis = test: MIC test (growth inhibition, 96 well plates, OD); conditions: read-out: Minimum Inhibitory Concentration (MIC)
# Protocol: as §1, §2, §3
# Aspergillus brasiliensis = test: MIC and Kull synergy index of 1,2-/2,3-alkanediol mixtures; conditions: single 2,3-alkanediol, read-out: MIC Component B
# [1] = system: Aspergillus brasiliensis (AB); test: Preservation efficacy test (PET), European Pharmacopoeia 5.1.3
# Protocol: (§4) The preservation efficacy test (PET) was performed in accordance with European Pharmacopoeia § 5.1.3: The test is a reference European Pharmacopoeia method, that is to be used to evaluate the preservation system of a cosmetic or pharmaceutical preparation. The test consists of challenging the preparation under test, with prescribed inoculums of suitable microorganisms. The preservation porperties of the preparation are adequate if, in the conditions of the test, there is a significant fall or no increase, as appropriate, in the number of microorganisms in the inoculated preparations after the time prescribed.
# (§5) The test microorganisms which were used, are the following:
# (§6) Pseudomonas aeruginosa (PA) (bacterium); Staphylococcus aureus (SA) (bacterium); Escherichia coli (EC) (bacterium); Candida albicans (CA) (yeast); and Aspergillus brasiliensis (AB) (fungus).
# Candida albicans (CA) = test: as above
# Protocol: as §4, §5, §6
# Escherichia coli (EC) = test: as above
# Protocol: as §4, §5, §6
# [2] = system: Pseudomonas aeruginosa (PA); test: as above
# Protocol: as §4, §5, §6
# [3] = system: Staphylococcus aureus (SA); test: as above
# Protocol: as §4, §5, §6
smiles,measurement,setting,value
"CCCCCC(O)C(C)O (stereo not drawn) [2,3-octanediol]",MIC,Candida albicans,5000 µg/mL
same,MIC,Corynebacterium jeikeium,5000 µg/mL
same,MIC,Escherichia coli,2500 µg/mL
same,MIC,Propionibacterium acnes,> 5000 µg/mL
same,MIC,Staphylococcus aureus,5000 µg/mL
same,MIC,Staphylococcus hominis,> 5000 µg/mL
same,MIC,Aspergillus brasiliensis,2500 µg/mL
same,number of microorganisms after 2 days,[1]; 0.1% in shampoo,"2,300,000"
same,number of microorganisms after 7 days,[1]; 0.1% in shampoo,"1,300,000"
same,number of microorganisms after 14 days,[1]; 0.1% in shampoo,"250,000"
same,number of microorganisms after 28 days,[1]; 0.1% in shampoo,"250,000"
same,number of microorganisms after 2 days,[1]; 0.1% in wet wipes solution,"12,000,000"
same,number of microorganisms after 7 days,[1]; 0.1% in wet wipes solution,"8,500,000"
same,number of microorganisms after 14 days,[1]; 0.1% in wet wipes solution,"9,300,000"
same,number of microorganisms after 28 days,[1]; 0.1% in wet wipes solution,"12,000,000"
same,number of microorganisms after 2 days,[1]; 0.2% in o/w emulsion,"1,700,000"
same,number of microorganisms after 7 days,[1]; 0.2% in o/w emulsion,"2,000,000"
same,number of microorganisms after 14 days,[1]; 0.2% in o/w emulsion,"2,100,000"
same,number of microorganisms after 28 days,[1]; 0.2% in o/w emulsion,"2,000,000"
same,number of microorganisms after 2 days,[1]; 0.4% in shampoo,"1,100,000"
same,number of microorganisms after 7 days,[1]; 0.4% in shampoo,"1,100,000"
same,number of microorganisms after 14 days,[1]; 0.4% in shampoo,"2,100,000"
same,number of microorganisms after 28 days,[1]; 0.4% in shampoo,"410,000"
same,number of microorganisms after 2 days,Candida albicans (CA); 0.1% in shampoo,"200,000"
same,number of microorganisms after 7 days,Candida albicans (CA); 0.1% in shampoo,"19,000"
same,number of microorganisms after 14 days,Candida albicans (CA); 0.1% in shampoo,390
same,number of microorganisms after 28 days,Candida albicans (CA); 0.1% in shampoo,1
same,number of microorganisms after 2 days,Candida albicans (CA); 0.1% in wet wipes solution,"5,000,000"
same,number of microorganisms after 7 days,Candida albicans (CA); 0.1% in wet wipes solution,"2,400,000"
same,number of microorganisms after 14 days,Candida albicans (CA); 0.1% in wet wipes solution,"6,900,000"
same,number of microorganisms after 28 days,Candida albicans (CA); 0.1% in wet wipes solution,"5,500,000"
same,number of microorganisms after 2 days,Candida albicans (CA); 0.2% in o/w emulsion,"2,000,000"
same,number of microorganisms after 7 days,Candida albicans (CA); 0.2% in o/w emulsion,"1,800,000"
same,number of microorganisms after 14 days,Candida albicans (CA); 0.2% in o/w emulsion,"1,900,000"
same,number of microorganisms after 28 days,Candida albicans (CA); 0.2% in o/w emulsion,"390,000"
same,number of microorganisms after 2 days,Candida albicans (CA); 0.4% in shampoo,"44,000"
same,number of microorganisms after 7 days,Candida albicans (CA); 0.4% in shampoo,"17,000"
same,number of microorganisms after 14 days,Candida albicans (CA); 0.4% in shampoo,510
same,number of microorganisms after 28 days,Candida albicans (CA); 0.4% in shampoo,1
same,number of microorganisms after 2 days,Escherichia coli (EC); 0.1% in shampoo,"2,600,000"
same,number of microorganisms after 7 days,Escherichia coli (EC); 0.1% in shampoo,"3,800,000"
same,number of microorganisms after 14 days,Escherichia coli (EC); 0.1% in shampoo,"1,500,000"
same,number of microorganisms after 28 days,Escherichia coli (EC); 0.1% in shampoo,"1,300,000"
same,number of microorganisms after 2 days,Escherichia coli (EC); 0.1% in wet wipes solution,"1,300,000"
same,number of microorganisms after 7 days,Escherichia coli (EC); 0.1% in wet wipes solution,"2,600,000"
same,number of microorganisms after 14 days,Escherichia coli (EC); 0.1% in wet wipes solution,"850,000"
same,number of microorganisms after 28 days,Escherichia coli (EC); 0.1% in wet wipes solution,"1,600"
same,number of microorganisms after 2 days,Escherichia coli (EC); 0.2% in o/w emulsion,"48,000"
same,number of microorganisms after 7 days,Escherichia coli (EC); 0.2% in o/w emulsion,290
same,number of microorganisms after 14 days,Escherichia coli (EC); 0.2% in o/w emulsion,1
same,number of microorganisms after 28 days,Escherichia coli (EC); 0.2% in o/w emulsion,1
same,number of microorganisms after 2 days,Escherichia coli (EC); 0.4% in shampoo,"1,100,000"
same,number of microorganisms after 7 days,Escherichia coli (EC); 0.4% in shampoo,"1,900,000"
same,number of microorganisms after 14 days,Escherichia coli (EC); 0.4% in shampoo,"2,100,000"
same,number of microorganisms after 28 days,Escherichia coli (EC); 0.4% in shampoo,"600,000"
same,number of microorganisms after 2 days,[2]; 0.1% in shampoo,"280,000"
same,number of microorganisms after 7 days,[2]; 0.1% in shampoo,"3,700,000"
same,number of microorganisms after 14 days,[2]; 0.1% in shampoo,"13,000,000"
same,number of microorganisms after 28 days,[2]; 0.1% in shampoo,"8,100,000"
same,number of microorganisms after 2 days,[2]; 0.1% in wet wipes solution,"1,300,000"
same,number of microorganisms after 7 days,[2]; 0.1% in wet wipes solution,"630,000"
same,number of microorganisms after 14 days,[2]; 0.1% in wet wipes solution,"310,000"
same,number of microorganisms after 28 days,[2]; 0.1% in wet wipes solution,"27,000"
same,number of microorganisms after 2 days,[2]; 0.2% in o/w emulsion,1
same,number of microorganisms after 7 days,[2]; 0.2% in o/w emulsion,1
same,number of microorganisms after 14 days,[2]; 0.2% in o/w emulsion,1
same,number of microorganisms after 28 days,[2]; 0.2% in o/w emulsion,1
same,number of microorganisms after 2 days,[2]; 0.4% in shampoo,"21,000"
same,number of microorganisms after 7 days,[2]; 0.4% in shampoo,1
same,number of microorganisms after 14 days,[2]; 0.4% in shampoo,1
same,number of microorganisms after 28 days,[2]; 0.4% in shampoo,1
same,number of microorganisms after 2 days,[3]; 0.1% in shampoo,"2,000"
same,number of microorganisms after 7 days,[3]; 0.1% in shampoo,1
same,number of microorganisms after 14 days,[3]; 0.1% in shampoo,1
same,number of microorganisms after 28 days,[3]; 0.1% in shampoo,1
same,number of microorganisms after 2 days,[3]; 0.1% in wet wipes solution,50
same,number of microorganisms after 7 days,[3]; 0.1% in wet wipes solution,50
same,number of microorganisms after 14 days,[3]; 0.1% in wet wipes solution,50
same,number of microorganisms after 28 days,[3]; 0.1% in wet wipes solution,50
same,number of microorganisms after 2 days,[3]; 0.2% in o/w emulsion,"1,300,000"
same,number of microorganisms after 7 days,[3]; 0.2% in o/w emulsion,"84,000"
same,number of microorganisms after 14 days,[3]; 0.2% in o/w emulsion,1
same,number of microorganisms after 28 days,[3]; 0.2% in o/w emulsion,1
same,number of microorganisms after 2 days,[3]; 0.4% in shampoo,"4,000"
same,number of microorganisms after 7 days,[3]; 0.4% in shampoo,1
same,number of microorganisms after 14 days,[3]; 0.4% in shampoo,1
same,number of microorganisms after 28 days,[3]; 0.4% in shampoo,1
